± gives the uncertainty stated by the source.
Test: xn = mol fraction of the nth substance listed

CCN(CC)S(C)(=O)=O + CCO
viscosity (303.15 K, 101.33 kPa, x1 = 0.0656): 100000 ± 16000 mPa·s | viscosity (303.15 K, 101.33 kPa, x1 = 0.1402): 106700 ± 17000 mPa·s | viscosity (303.15 K, 101.33 kPa, x1 = 0.2228): 117500 ± 19000 mPa·s | viscosity (303.15 K, 101.33 kPa, x1 = 0.2849): 127400 ± 21000 mPa·s | viscosity (303.15 K, 101.33 kPa, x1 = 0.3659): 142400 ± 24000 mPa·s | viscosity (303.15 K, 101.33 kPa, x1 = 0.4606): 163500 ± 29000 mPa·s | viscosity (303.15 K, 101.33 kPa, x1 = 0.5135): 176500 ± 32000 mPa·s | viscosity (303.15 K, 101.33 kPa, x1 = 0.5968): 200200 ± 38000 mPa·s | viscosity (303.15 K, 101.33 kPa, x1 = 0.6622): 221700 ± 43000 mPa·s | viscosity (303.15 K, 101.33 kPa, x1 = 0.743): 253300 ± 51000 mPa·s | viscosity (303.15 K, 101.33 kPa, x1 = 0.8454): 302600 ± 65000 mPa·s | viscosity (303.15 K, 101.33 kPa, x1 = 0.9395): 359700 ± 81000 mPa·s

CCCCCCCO + CCCCCC
viscosity (303.15 K, 101.33 kPa, x1 = 0.0308): 0.2866 ± 0.0041 mPa·s | viscosity (303.15 K, 101.33 kPa, x1 = 0.0919): 0.3254 ± 0.0043 mPa·s | viscosity (303.15 K, 101.33 kPa, x1 = 0.1567): 0.3966 ± 0.0047 mPa·s | viscosity (303.15 K, 101.33 kPa, x1 = 0.2496): 0.5095 ± 0.0054 mPa·s | viscosity (303.15 K, 101.33 kPa, x1 = 0.4018): 0.7642 ± 0.0071 mPa·s | viscosity (303.15 K, 101.33 kPa, x1 = 0.4831): 0.9566 ± 0.0089 mPa·s | viscosity (303.15 K, 101.33 kPa, x1 = 0.578): 1.248 ± 0.012 mPa·s | viscosity (303.15 K, 101.33 kPa, x1 = 0.6838): 1.776 ± 0.017 mPa·s | viscosity (303.15 K, 101.33 kPa, x1 = 0.7882): 2.479 ± 0.024 mPa·s | viscosity (303.15 K, 101.33 kPa, x1 = 0.8946): 3.522 ± 0.034 mPa·s | viscosity (303.15 K, 101.33 kPa, x1 = 0.9642): 4.384 ± 0.041 mPa·s | viscosity (313.15 K, 101.33 kPa, x1 = 0.0308): 0.2693 ± 0.004 mPa·s | viscosity (313.15 K, 101.33 kPa, x1 = 0.0919): 0.294 ± 0.0041 mPa·s | viscosity (313.15 K, 101.33 kPa, x1 = 0.1567): 0.3446 ± 0.0044 mPa·s | viscosity (313.15 K, 101.33 kPa, x1 = 0.2496): 0.4493 ± 0.005 mPa·s | viscosity (313.15 K, 101.33 kPa, x1 = 0.4018): 0.6611 ± 0.0064 mPa·s | viscosity (313.15 K, 101.33 kPa, x1 = 0.4831): 0.7663 ± 0.0074 mPa·s | viscosity (313.15 K, 101.33 kPa, x1 = 0.578): 0.9882 ± 0.0093 mPa·s | viscosity (313.15 K, 101.33 kPa, x1 = 0.6838): 1.348 ± 0.013 mPa·s | viscosity (313.15 K, 101.33 kPa, x1 = 0.7882): 1.832 ± 0.018 mPa·s | viscosity (313.15 K, 101.33 kPa, x1 = 0.8946): 2.473 ± 0.026 mPa·s | viscosity (313.15 K, 101.33 kPa, x1 = 0.9642): 3.175 ± 0.034 mPa·s

O=C(O)C=Cc1ccccc1 + CCCCO
viscosity (308.15 K, 101.33 kPa, x1 = 0.0728): 2.48 ± 0.066 mPa·s | viscosity (313.15 K, 101.33 kPa, x1 = 0.0728): 2.19 ± 0.058 mPa·s | viscosity (318.15 K, 101 kPa, x1 = 0.0728): 1.932 ± 0.02 mPa·s | viscosity (318.15 K, 101 kPa, x1 = 0.0959): 2.073 ± 0.021 mPa·s | viscosity (318.15 K, 101 kPa, x1 = 0.114): 2.18 ± 0.022 mPa·s | viscosity (318.15 K, 101.33 kPa, x1 = 0.0728): 1.932 ± 0.051 mPa·s | viscosity (318.15 K, 101.33 kPa, x1 = 0.0959): 2.073 ± 0.055 mPa·s | viscosity (323.15 K, 101.33 kPa, x1 = 0.0728): 1.712 ± 0.045 mPa·s | viscosity (323.15 K, 101.33 kPa, x1 = 0.0959): 1.838 ± 0.049 mPa·s

CCN(CC)CCO + CC(=O)c1ccccc1
viscosity (303.15 K, 101.3 kPa, x2 = 0.1124): 3.131 ± 0.63 mPa·s | viscosity (303.15 K, 101.3 kPa, x2 = 0.2218): 2.954 ± 0.59 mPa·s | viscosity (303.15 K, 101.3 kPa, x2 = 0.3282): 2.778 ± 0.56 mPa·s | viscosity (303.15 K, 101.3 kPa, x2 = 0.4318): 2.601 ± 0.52 mPa·s | viscosity (303.15 K, 101.3 kPa, x2 = 0.5327): 2.424 ± 0.49 mPa·s | viscosity (303.15 K, 101.3 kPa, x2 = 0.631): 2.247 ± 0.45 mPa·s | viscosity (303.15 K, 101.3 kPa, x2 = 0.7268): 2.07 ± 0.41 mPa·s | viscosity (303.15 K, 101.3 kPa, x2 = 0.8201): 1.894 ± 0.38 mPa·s | viscosity (303.15 K, 101.3 kPa, x2 = 0.9112): 1.717 ± 0.34 mPa·s | viscosity (313.15 K, 101.3 kPa, x2 = 0.1124): 2.304 ± 0.46 mPa·s | viscosity (313.15 K, 101.3 kPa, x2 = 0.2218): 2.193 ± 0.44 mPa·s | viscosity (313.15 K, 101.3 kPa, x2 = 0.3282): 2.083 ± 0.42 mPa·s | viscosity (313.15 K, 101.3 kPa, x2 = 0.4318): 1.972 ± 0.39 mPa·s | viscosity (313.15 K, 101.3 kPa, x2 = 0.5327): 1.862 ± 0.37 mPa·s | viscosity (313.15 K, 101.3 kPa, x2 = 0.631): 1.752 ± 0.35 mPa·s | viscosity (313.15 K, 101.3 kPa, x2 = 0.7268): 1.641 ± 0.33 mPa·s | viscosity (313.15 K, 101.3 kPa, x2 = 0.8201): 1.531 ± 0.31 mPa·s | viscosity (313.15 K, 101.3 kPa, x2 = 0.9112): 1.42 ± 0.28 mPa·s | viscosity (323.15 K, 101.3 kPa, x2 = 0.1124): 1.458 ± 0.29 mPa·s | viscosity (323.15 K, 101.3 kPa, x2 = 0.2218): 1.446 ± 0.29 mPa·s | viscosity (323.15 K, 101.3 kPa, x2 = 0.3282): 1.434 ± 0.29 mPa·s | viscosity (323.15 K, 101.3 kPa, x2 = 0.4318): 1.419 ± 0.28 mPa·s | viscosity (323.15 K, 101.3 kPa, x2 = 0.5327): 1.401 ± 0.28 mPa·s | viscosity (323.15 K, 101.3 kPa, x2 = 0.631): 1.381 ± 0.28 mPa·s | viscosity (323.15 K, 101.3 kPa, x2 = 0.7268): 1.36 ± 0.27 mPa·s | viscosity (323.15 K, 101.3 kPa, x2 = 0.8201): 1.335 ± 0.27 mPa·s | viscosity (323.15 K, 101.3 kPa, x2 = 0.9112): 1.311 ± 0.26 mPa·s

OC1CCCCC1 + OC1CCCC1
viscosity (303.15 K, 100 kPa, x2 = 0.1): 34.92 ± 0.36 mPa·s | viscosity (303.15 K, 100 kPa, x2 = 0.3): 23.18 ± 0.3 mPa·s | viscosity (303.15 K, 100 kPa, x2 = 0.5): 16.54 ± 0.23 mPa·s | viscosity (303.15 K, 100 kPa, x2 = 0.7): 12.51 ± 0.19 mPa·s | viscosity (303.15 K, 100 kPa, x2 = 0.9): 9.2 ± 0.18 mPa·s | viscosity (308.15 K, 100 kPa, x2 = 0.1): 27.86 ± 0.34 mPa·s | viscosity (308.15 K, 100 kPa, x2 = 0.3): 19.17 ± 0.25 mPa·s | viscosity (308.15 K, 100 kPa, x2 = 0.5): 13.78 ± 0.2 mPa·s | viscosity (308.15 K, 100 kPa, x2 = 0.7): 10.67 ± 0.18 mPa·s | viscosity (308.15 K, 100 kPa, x2 = 0.9): 7.88 ± 0.17 mPa·s | viscosity (313.15 K, 100 kPa, x2 = 0.1): 21.32 ± 0.29 mPa·s | viscosity (313.15 K, 100 kPa, x2 = 0.3): 15.13 ± 0.23 mPa·s | viscosity (313.15 K, 100 kPa, x2 = 0.5): 11.11 ± 0.19 mPa·s | viscosity (313.15 K, 100 kPa, x2 = 0.7): 8.78 ± 0.18 mPa·s | viscosity (313.15 K, 100 kPa, x2 = 0.9): 6.57 ± 0.17 mPa·s | viscosity (318.16 K, 100 kPa, x2 = 0.1): 16.48 ± 0.24 mPa·s | viscosity (318.16 K, 100 kPa, x2 = 0.3): 11.96 ± 0.2 mPa·s | viscosity (318.16 K, 100 kPa, x2 = 0.5): 9.04 ± 0.18 mPa·s | viscosity (318.16 K, 100 kPa, x2 = 0.7): 7.2 ± 0.17 mPa·s | viscosity (318.16 K, 100 kPa, x2 = 0.9): 5.49 ± 0.17 mPa·s

CCCCC + CCCCCl
viscosity (298 K, 101.3 kPa, x1 = 0.1016): 0.4004 ± 0.011 mPa·s | viscosity (298 K, 101.3 kPa, x1 = 0.2097): 0.372 ± 0.01 mPa·s | viscosity (298 K, 101.3 kPa, x1 = 0.2358): 0.3641 ± 0.0098 mPa·s | viscosity (298 K, 101.3 kPa, x1 = 0.403): 0.3274 ± 0.0088 mPa·s | viscosity (298 K, 101.3 kPa, x1 = 0.5062): 0.3054 ± 0.0083 mPa·s | viscosity (298 K, 101.3 kPa, x1 = 0.6042): 0.287 ± 0.0078 mPa·s | viscosity (298 K, 101.3 kPa, x1 = 0.7007): 0.2701 ± 0.0073 mPa·s | viscosity (298 K, 101.3 kPa, x1 = 0.7975): 0.2558 ± 0.007 mPa·s | viscosity (298 K, 101.3 kPa, x1 = 0.8963): 0.2391 ± 0.0065 mPa·s

CCCCC + CCCCO
viscosity (298.15 K, 101 kPa, x2 = 0.1233): 0.258 ± 0.003 mPa·s | viscosity (298.15 K, 101 kPa, x2 = 0.2435): 0.319 ± 0.004 mPa·s | viscosity (298.15 K, 101 kPa, x2 = 0.4175): 0.481 ± 0.005 mPa·s | viscosity (298.15 K, 101 kPa, x2 = 0.4935): 0.609 ± 0.006 mPa·s | viscosity (298.15 K, 101 kPa, x2 = 0.5883): 0.809 ± 0.008 mPa·s | viscosity (298.15 K, 101 kPa, x2 = 0.6892): 1.042 ± 0.01 mPa·s | viscosity (298.15 K, 101 kPa, x2 = 0.7941): 1.44 ± 0.014 mPa·s | viscosity (298.15 K, 101 kPa, x2 = 0.869): 1.832 ± 0.017 mPa·s
